Source: ChEMBL document CHEMBL2169741, “Analysis of the discriminative inhibition of mammalian digestive lipases by 3-phenyl substituted 1,3,4-oxadiazol-2(3H)-ones” (Eur J Med Chem, 2012)
Activity calls are given as the source filed them. No cut-off for these calls is given here.

Key:
[1] = target: T1, Pancreatic triacylglycerol lipase (Sus scrofa) (UniProt P00591); assay: Inhibition of PPL after 30 mins in presence of NaTDC
T1 sequence (whole entry): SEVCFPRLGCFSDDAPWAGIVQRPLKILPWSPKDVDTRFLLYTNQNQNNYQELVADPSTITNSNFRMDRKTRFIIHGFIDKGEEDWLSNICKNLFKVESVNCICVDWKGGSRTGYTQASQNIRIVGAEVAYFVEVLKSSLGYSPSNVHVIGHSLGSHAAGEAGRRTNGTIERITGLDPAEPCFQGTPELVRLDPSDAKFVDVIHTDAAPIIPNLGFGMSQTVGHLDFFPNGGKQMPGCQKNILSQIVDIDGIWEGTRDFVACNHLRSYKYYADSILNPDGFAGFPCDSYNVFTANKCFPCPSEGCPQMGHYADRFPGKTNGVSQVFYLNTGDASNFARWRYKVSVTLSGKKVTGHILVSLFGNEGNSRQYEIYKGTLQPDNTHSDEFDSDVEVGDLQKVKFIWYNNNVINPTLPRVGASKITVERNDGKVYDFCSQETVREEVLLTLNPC

[2] = target: T2, Pancreatic lipase-related protein 2 (Homo sapiens) (UniProt P54317); assay: Inhibition of recombinant HPLRP2 expressed in Pichia pastoris at 20 molar excess after 30 mins in presence of NaTDC
T2 sequence (whole entry): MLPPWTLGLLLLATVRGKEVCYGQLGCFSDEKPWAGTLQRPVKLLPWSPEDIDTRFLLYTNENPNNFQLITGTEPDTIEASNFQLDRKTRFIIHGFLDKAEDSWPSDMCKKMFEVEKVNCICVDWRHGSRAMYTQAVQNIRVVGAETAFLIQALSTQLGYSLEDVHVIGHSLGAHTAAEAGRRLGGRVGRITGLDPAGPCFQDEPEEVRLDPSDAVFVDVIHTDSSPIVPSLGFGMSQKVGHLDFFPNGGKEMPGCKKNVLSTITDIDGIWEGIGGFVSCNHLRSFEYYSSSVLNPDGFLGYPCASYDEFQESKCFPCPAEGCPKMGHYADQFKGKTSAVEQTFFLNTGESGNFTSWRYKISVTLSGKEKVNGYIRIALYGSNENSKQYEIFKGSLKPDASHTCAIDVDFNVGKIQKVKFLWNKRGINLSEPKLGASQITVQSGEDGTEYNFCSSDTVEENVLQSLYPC

[3] = target: T3, Pancreatic triacylglycerol lipase (Homo sapiens) (UniProt P16233); assay: Inhibition of recombinant HPL expressed in Pichia pastoris at 100 molar excess after 30 mins in presence of NaTDC
T3 sequence (whole entry): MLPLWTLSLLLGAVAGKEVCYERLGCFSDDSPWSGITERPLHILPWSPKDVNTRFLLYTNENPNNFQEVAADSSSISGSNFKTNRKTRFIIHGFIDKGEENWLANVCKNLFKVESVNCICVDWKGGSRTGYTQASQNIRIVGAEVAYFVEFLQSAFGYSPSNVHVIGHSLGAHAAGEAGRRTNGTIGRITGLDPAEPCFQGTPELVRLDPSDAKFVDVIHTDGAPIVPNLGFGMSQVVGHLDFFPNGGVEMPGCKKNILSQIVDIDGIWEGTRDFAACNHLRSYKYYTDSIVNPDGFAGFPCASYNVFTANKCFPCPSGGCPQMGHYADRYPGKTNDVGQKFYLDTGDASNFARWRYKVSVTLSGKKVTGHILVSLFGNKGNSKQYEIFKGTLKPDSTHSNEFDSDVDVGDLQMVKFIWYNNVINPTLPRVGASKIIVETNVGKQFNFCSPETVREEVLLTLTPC

[4] = target: T4, Pancreatic lipase-related protein 2 (Cavia porcellus) (UniProt P81139); assay: Inhibition of recombinant GPLRP2 expressed in Aspergillus oryzae at 2 molar excess after 30 mins in presence of NaTDC
T4 sequence (whole entry): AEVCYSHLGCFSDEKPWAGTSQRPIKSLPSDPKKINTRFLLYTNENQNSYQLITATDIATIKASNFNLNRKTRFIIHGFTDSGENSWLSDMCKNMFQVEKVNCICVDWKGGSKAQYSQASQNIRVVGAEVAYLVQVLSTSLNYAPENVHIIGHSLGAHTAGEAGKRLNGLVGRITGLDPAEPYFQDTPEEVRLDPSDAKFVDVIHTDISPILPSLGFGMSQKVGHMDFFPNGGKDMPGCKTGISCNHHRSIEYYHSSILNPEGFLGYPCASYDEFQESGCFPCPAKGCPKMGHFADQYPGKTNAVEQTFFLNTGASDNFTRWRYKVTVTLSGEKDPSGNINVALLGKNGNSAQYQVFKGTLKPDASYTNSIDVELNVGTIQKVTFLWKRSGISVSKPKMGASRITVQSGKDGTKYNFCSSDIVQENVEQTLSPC

[5] = target: T2, Pancreatic lipase-related protein 2 (Homo sapiens); assay: Inhibition of recombinant HPLRP2 expressed in Pichia pastoris after 30 mins in presence of NaTDC
[6] = target: T2, Pancreatic lipase-related protein 2 (Homo sapiens); assay: Inhibition of recombinant HPLRP2 expressed in Pichia pastoris assessed as half inactivation time at 5 molar excess in presence of NaTDC
[7] = target: T5, Bile salt-activated lipase (Homo sapiens) (UniProt P19835); assay: Inhibition of human pancreatic CEH at 2 molar excess after 30 mins
T5 sequence (whole entry): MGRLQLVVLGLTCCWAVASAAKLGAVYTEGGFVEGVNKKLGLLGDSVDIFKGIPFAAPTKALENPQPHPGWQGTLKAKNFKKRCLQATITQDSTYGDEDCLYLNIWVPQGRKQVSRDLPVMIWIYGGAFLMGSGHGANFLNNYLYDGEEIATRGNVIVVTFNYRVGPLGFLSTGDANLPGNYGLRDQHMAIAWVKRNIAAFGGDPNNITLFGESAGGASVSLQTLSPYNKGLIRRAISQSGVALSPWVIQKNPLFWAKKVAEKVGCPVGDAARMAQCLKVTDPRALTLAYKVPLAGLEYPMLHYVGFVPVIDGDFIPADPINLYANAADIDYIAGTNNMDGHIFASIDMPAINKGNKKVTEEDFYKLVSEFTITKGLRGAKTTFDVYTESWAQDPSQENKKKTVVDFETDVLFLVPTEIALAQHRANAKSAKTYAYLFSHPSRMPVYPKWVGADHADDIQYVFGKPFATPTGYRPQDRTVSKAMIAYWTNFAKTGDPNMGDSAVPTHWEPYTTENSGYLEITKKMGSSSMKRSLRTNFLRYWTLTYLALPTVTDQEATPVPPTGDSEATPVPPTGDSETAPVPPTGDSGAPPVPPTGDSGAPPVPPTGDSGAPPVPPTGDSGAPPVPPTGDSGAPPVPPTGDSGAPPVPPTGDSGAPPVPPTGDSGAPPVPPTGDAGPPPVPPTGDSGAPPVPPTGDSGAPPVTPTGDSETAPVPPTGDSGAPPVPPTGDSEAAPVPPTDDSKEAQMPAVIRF

[8] = target: T6, Gastric triacylglycerol lipase (Canis lupus familiaris) (UniProt P80035); assay: Inhibition of recombinant DGL expressed in transgenic maize assessed as half inactivation time at 20 molar excess in presence of NaTDC
T6 sequence (whole entry): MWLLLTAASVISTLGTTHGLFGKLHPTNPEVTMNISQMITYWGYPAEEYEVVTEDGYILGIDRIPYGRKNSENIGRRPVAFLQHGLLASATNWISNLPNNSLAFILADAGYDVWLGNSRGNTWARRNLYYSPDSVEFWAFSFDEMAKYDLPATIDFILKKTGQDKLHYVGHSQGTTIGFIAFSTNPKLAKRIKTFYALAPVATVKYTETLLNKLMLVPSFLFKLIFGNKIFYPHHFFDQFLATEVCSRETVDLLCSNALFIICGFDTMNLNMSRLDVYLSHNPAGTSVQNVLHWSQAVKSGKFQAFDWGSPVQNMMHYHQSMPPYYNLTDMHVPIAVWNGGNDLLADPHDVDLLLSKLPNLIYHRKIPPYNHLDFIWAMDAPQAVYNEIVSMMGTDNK

[9] = target: T6, Gastric triacylglycerol lipase (Canis lupus familiaris); assay: Inhibition of recombinant DGL expressed in transgenic maize at 20 molar excess after 30 mins in presence of NaTDC
[10] = target: T5, Bile salt-activated lipase (Homo sapiens); assay: Inhibition of human pancreatic CEH at 20 molar excess after 30 mins
[11] = target: T6, Gastric triacylglycerol lipase (Canis lupus familiaris); assay: Inhibition of recombinant DGL expressed in transgenic maize at 2 molar excess after 30 mins in presence of NaTDC
Sus scrofa = species: Sus scrofa; assay: Inhibition of porcine Pancrelipase at 400 molar excess after 30 mins
[12] = target: T5, Bile salt-activated lipase (Homo sapiens); assay: Inhibition of human pancreatic CEH after 30 mins
[13] = target: T1, Pancreatic triacylglycerol lipase (Sus scrofa); assay: Inhibition of PPL at 400 molar excess after 30 mins in presence of NaTDC
[14] = target: T4, Pancreatic lipase-related protein 2 (Cavia porcellus); assay: Inhibition of recombinant GPLRP2 expressed in Aspergillus oryzae at 20 molar excess after 30 mins in presence of NaTDC
[15] = target: T3, Pancreatic triacylglycerol lipase (Homo sapiens); assay: Inhibition of recombinant HPL expressed in Pichia pastoris at 400 molar excess after 30 mins in presence of NaTDC
[16] = target: T1, Pancreatic triacylglycerol lipase (Sus scrofa); assay: Inhibition of PPL assessed as half inactivation time at 100 molar excess in presence of NaTDC
[17] = target: T1, Pancreatic triacylglycerol lipase (Sus scrofa); assay: Inhibition of PPL at 100 molar excess after 30 mins in presence of NaTDC
[18] = target: T6, Gastric triacylglycerol lipase (Canis lupus familiaris); assay: Inhibition of recombinant DGL expressed in transgenic maize assessed as hydrolysis of trybutyrin emulsion at 10 to 40 molar excess after 30 mins in presence of NaTDC
[19] = target: T4, Pancreatic lipase-related protein 2 (Cavia porcellus); assay: Inhibition of recombinant GPLRP2 expressed in Aspergillus oryzae assessed as half inactivation time at 2 molar excess in presence of NaTDC
[20] = target: T2, Pancreatic lipase-related protein 2 (Homo sapiens); assay: Inhibition of recombinant HPLRP2 expressed in Pichia pastoris at 2 molar excess after 30 mins in presence of NaTDC
[21] = target: T3, Pancreatic triacylglycerol lipase (Homo sapiens); assay: Inhibition of recombinant HPL expressed in Pichia pastoris assessed as half inactivation time at 100 molar excess in presence of NaTDC
[22] = target: T5, Bile salt-activated lipase (Homo sapiens); assay: Inhibition of human pancreatic CEH assessed as half inactivation time at 4 molar excess
[23] = target: T3, Pancreatic triacylglycerol lipase (Homo sapiens); assay: Inhibition of recombinant HPL expressed in Pichia pastoris after 30 mins in presence of NaTDC
[24] = target: T6, Gastric triacylglycerol lipase (Canis lupus familiaris); assay: Inhibition of recombinant DGL expressed in transgenic maize after 30 mins in presence of NaTDC
[25] = target: T4, Pancreatic lipase-related protein 2 (Cavia porcellus); assay: Inhibition of recombinant GPLRP2 expressed in Aspergillus oryzae after 30 mins in presence of NaTDC

Row | Structure (SMILES) | XI50 [1] | inhibition [2] | inhibition [3] | inhibition [4] | XI50 [5] | T1/2 [6] | inhibition [7] | T1/2 [8] | inhibition [9] | inhibition [10] | inhibition [11] | inhibition (Sus scrofa) | XI50 [12] | inhibition [13] | inhibition [14] | inhibition [15] | T1/2 [16] | inhibition [17] | T1/2 [19] | inhibition [20] | other results
1 | CCCCCCCCCCC[C@@H](C[C@@H]1OC(=O)[C@H]1CCCCCC)OC(=O)[C@H](CC(C)C)NC=O | 2.76 molar excess | 86.3% | 77.2% | 82.7% | 0.77 molar excess | 0.55 min | 80.1% | 0.59 min | 56.3% | 83.6% | 51.5% | 93.1% | 0.78 molar excess | 90.9% | 87.3% | 85% | 1.66 min | 85.5% | 0.4 min | 83.6% | inhibition [18]: 60%; T1/2 [21]: 1.64 min; T1/2 [22]: 0.52 min
2 | COc1nn(-c2ccccc2)c(=O)o1 | > 400 molar excess | 92.7% | inactive | 77.6% | 2.27 molar excess | 14.6 min | 71.6% | > 60 min | 6.6% | 81.3% | 1.4% | 34.1% | 0.77 molar excess | 35.8% | 86% | inactive | > 60 min | 10.7% | 9.97 min | 49.9% | XI50 [23]: inactive; XI50 [24]: > 40 molar excess; XI50 [25]: 0.74 molar excess; inhibition [21]: inactive; T1/2 [22]: 1 min
